Assay results as given in patent US7528148B2, “Pyrazolo[3,4-B]pyridine compounds, and their use as phosphodiesterase inhibitors” (Glaxo Group Limited, priority 2002, dated 2009).

Key:
[1] = system: LPS-induced pulmonary neutrophilia in rats; assay: In Vivo Assay 1: LPS-induced pulmonary neutrophilia in rats, orally administered PDE4 inhibitors; conditions: po, rat, LPS aerosol 30 min after dosing, BAL 4 hours post LPS, read-out: neutrophilia-inhibition ED50
Text: In Vivo Assay 1. LPS-induced Pulmonary Neutrophilia in Rats: Effect of Orally Administered PDE4 Inhibitors
The purpose of this neutrophilia model is to study the potentially anti-inflammatory effects in vivo of orally administered PDE4 inhibitors on neutrophilia induced by inhalation of aerosolized lipopolysaccharide (LPS), modelling the neutrophil inflammatory component(s) of COPD. See the literature section below for scientific background.
Male Lewis rats (Charles River, Raleigh, N.C., USA) weighing approximately 300-400 grams are pretreated with either (a) test compound suspended in 0.5% methylcellulose (obtainable from Sigma-Aldrich, St Louis, Mo., USA) in water or (b) vehicle only, delivered orally in a dose volume of 10 ml/kg. Generally, dose response curves are generated using the following doses of PDE4 inhibitors: 10.0, 2.0, 0.4, 0.08 and 0.016 mg/kg. Thirty minutes following pretreatment, the rats are exposed to aerosolized LPS (Serotype E. Coli 026:B6 prepared by trichloroacetic acid extraction, obtainable from Sigma-Aldrich, St Louis, Mo., USA), generated from a nebulizer containing a 100 μg/ml LPS solution. Rats are exposed to the LPS aerosol at a rate of 4 L/min for 20 minutes. LPS exposure is carried out in a closed chamber with internal dimensions of 45 cm length×24 cm width×20 cm height. The nebulizer and exposure chamber are contained in a certified fume hood. At 4 hours-post LPS exposure the rats are euthanized by overdose with pentobarbital at 90 mg/kg, administered intraperitoneally. Bronchoalveolar lavage (BAL) is performed through a 14 gauge blunt needle into the exposed trachea. Five, 5 ml washes are performed to collect a total of 25 ml of BAL fluid. Total cell counts and leukocyte differentials are performed on BAL fluid in order to calculate neutrophil influx into the lung. Percent neutrophil inhibition at each dose (cf. vehicle) is calculated and a variable slope, sigmoidal dose-response curve is generated, usually using Prism Graph-Pad. The dose-response curve is used to calculate an ED50 value (in mg per kg of body weight) for inhibition by the PDE4 inhibitor of the LPS-induced neutrophilia
Alternative method and results: In an alternative embodiment of the procedure, a single oral dose of 10 mg/kg or 1 mg/kg of the PDE4 inhibitor (or vehicle) is administered to the rats, and percent neutrophil inhibition is calculated and reported for that specific dose.

[2] = system: pica feeding response of rats; assay: In Vivo Assay 2: rat pica model of emesis; conditions: oral dosing, upper end given as greater than about 50 mg/kg
Text: In Vivo Assay 2. Rat Pica Model of Emesis
However, a side effect of some PDE4 inhibitors in many species is emesis. Because many rat models of inflammation are well characterized, they have been used in procedures (see e.g. In Vivo Assay 1 above) to show beneficial anti-inflammatory effects of PDE 4 inhibitors. However rats have no emetic response (they have no vomit reflex), so that the relationship between beneficial anti-inflammatory effects of PDE 4 inhibitors and emesis is difficult to study directly in rats.
Pica feeding is a behavioural response to illness in rats wherein rats eat non-nutritive substances such as earth or in particular clay (e.g. kaolin) which may help to absorb toxins. Pica feeding can be induced by motion and chemicals (especially chemicals which are emetic in humans), and can be inhibited pharmacologically with drugs that inhibit emesis in humans. The Rat Pica Model, In Vivo Assay 2, can determine the level of pica response of rats to PDE 4 inhibition at pharmacologically relevant doses in parallel to in vivo anti-inflammatory Assays in (a separate set of) rats (e.g. In Vivo Assay 1 above). Anti-inflammatory and pica assays in the same species together can provide data on the “therapeutic index” (TI) in the rat of the compounds/salts of the invention. The Rat TI can for example be calculated as the ratio of a) the potentially-emetic Pica Response ED50 dose from Assay 2 to b) the rat anti-inflammatory ED50 dose (e.g. measured by rat neutrophilia-inhibition in eg In Vivo Assay 1), with larger TI ratios possibly indicating lower emesis at many anti-inflammatory doses. This might allow a choice of a non-emetic or minimal-emetic pharmaceutical dose of the compounds or salts of the invention which has an anti-inflammatory effect. It is recognised however that achieving a low-emetic PDE4 inhibitory compound is not essential to the invention.
Procedure: On the first day of the experiment, the rats are housed individually in cages without bedding or “enrichment”. The rats are kept off of the cage floor by a wire screen. Pre-weighed food cups containing standard rat chow and clay pellets are placed in the cage. The clay pellets, obtainable from Languna Clay Co, City of Industry, Calif., USA, are the same size and shape as the food pellets. The rats are acclimated to the clay for 72 hours, during which time the cups and food and clay debris from the cage are weighed daily on an electronic balance capable of measuring to the nearest 0.1 grams. By the end of the 72 hour acclimation period the rats generally show no interest in the clay pellets.
At the end of 72 hours the rats are placed in clean cages and the food cups weighed. Rats that are still consuming clay regularly are removed from the study. […] The food and clay cups and cage debris are weighed the following day and the total clay and food consumed that night by each individual animal is calculated.
A dose response is calculated by first converting the data into quantal response, where animals are either positive or negative for the pica response. A rat is “pica positive” if it consumes greater than or equal to 0.3 grams of clay […] using logistic regression performed by the Statistica software statistical package. A Pica Response ED50 value in mg per kg of body weight can then be calculated. […]

SMILES	ED50 [1]	ED50 [2]
CCn1ncc2c(NC3CCOCC3)c(-c3nnc(CN4CCN(C)CC4)o3)cnc21 [Example 35, 1-Ethyl-5-{5-[(4-methylpiperazin-1-yl)methyl]-1,3,4-oxadiazol-2-yl}-N-(tetrahydro-2H-pyran-4-yl)-1H-pyrazolo[3,4-b]pyridin-4-amine]	0.03 to 1 mg/kg	2 to 50 mg/kg
CCn1ncc2c(NC3CCOCC3)c(-c3nnc(C(C)(C)C)o3)cnc21 [Example 17, 5-(S-Tert-butyl-1,3,4-oxadiazol-2-yl)-1-ethyl-N-(tetrahydro-2H-pyran-4-yl)-1H-pyrazolo[3,4-b]pyridin-4-amine]	0.03 to 1 mg/kg	2 to 50 mg/kg
CCn1ncc2c(NC3CCOCC3)c(-c3nnc(CS(C)(=O)=O)o3)cnc21 [Example 23, 1-Ethyl-5-{5-[(methylsulfonyl)methyl]-1,3,4-oxadiazol-2-yl}-N-(tetrahydro-2H-pyran-4-yl)-1H-pyrazolo[3,4-b]pyridin-4-amine]	0.03 to 1 mg/kg	2 to 50 mg/kg
CCn1ncc2c(NC3CCOCC3)c(-c3nnc(C)o3)cnc21 [Example 14, 1-Ethyl-5-(5-methyl-1,3,4-oxadiazol-2-yl)-N-(tetrahydro-2H-pyran-4-yl)-1H-pyrazolo[3,4-b]pyridin-4-amine]	0.03 to 1 mg/kg	2 to 50 mg/kg
CCn1ncc2c(NC3CCOCC3)c(-c3nnc(C4CCOCC4)o3)cnc21 [Example 38, 1-Ethyl-N-(tetrahydro-2H-pyran-4-yl)-5-[5-(tetrahydro-2H-pyran-4-yl)-1,3,4-oxadiazol-2-yl]-1H-pyrazolo[3,4-b]pyridin-4-amine]	0.03 to 1 mg/kg	2 to 50 mg/kg
